Reference: patent US8198327B2, “Fatty acid amides and uses thereof” (Yissum Research Development Company of the Hebrew …, priority 2008, dated 2012)
Entries after “also recorded” stand apart in the source; their conditions may differ. Read-outs that look alike come from different tables or passages of the source.

Experiments:
[1] = system: MC3T3 E1 osteoblastic cells; test: MC3T3 E1 osteoblastic cell assay (cell number / proliferation); format: cell-based
Source text: FIGS. 1(A)-1(F) are graphical depictions of screening of fatty acid derivatives identified in brain for proliferative activity in MC3T3 E1 osteoblastic cells. (A), oleoyl-serine (HU-639); (B), palmitoyl-serine; (C), arachidonoyl-serine (HU-362); (D), arachidonoyl-ethanolamide; (E), palmitoyl-ethanolamide; (F), 2-arachidonoylglycerol. Data are mean±SE obtained in 3 culture wells per condition.
FIG. 9 represents methylated oleoyl-serine (HU-639) derivatives α-methyl oleoyl serine (HU-671) and 2-methyl-oleoyl serine (HU-681)) stimulation of MC3T3 E1 osteoblastic cell number at concentration 10- to 100-fold lower than HU-639. Data are mean±SE obtained in 3 culture wells per condition. *, ANOVA, p<0.05 vs. ligand-free control (Cntl).
(§1) Several lipid compounds present in the brain stimulated the proliferation of MC3T3 E1 osteoblast-like cells in vitro (FIG. 1). […] The HU-639 mitogenic effect was confirmed measuring BrdU incorporation in the MC3T3 E1 cells and in primary calvarial osteoblasts (FIG. 4A). […] Typical of some osteoblast mitogenic agents [Miguel et al, 2005], the dose-response curves representing oleoyl-serine (HU-639) activity in culture are bell shaped, with the peak stimulation of cell number followed by reversal of the effect to baseline levels (FIGS. 4A, 4B).
The oleoyl-serine derivatives α-methyl oleoyl serine (HU-671) and 2-methyl-oleoyl serine (HU-681) were tested in the MC3T3 E1 osteoblastic cell assay, HU-671 and HU-681 stimulated cell number with respective peak effects at 10^−12 M and 10^−13 M as compared to 10^−11 M of the parent HU-639 molecule (FIG. 9).

MC3T3 E1 cells = test: BrdU incorporation in MC3T3 E1 cells; format: cell-based
Source text: as §1

[2] = system: primary calvarial osteoblasts; test: BrdU incorporation in primary calvarial osteoblasts; format: cell-based
Source text: as §1

Erk1/2 phosphorylation [3] = test: Erk1/2 phosphorylation in osteoblasts; format: cell-based
Source text: (§2) FIGS. 4(A)-4(E) represents signaling of oleoyl-serine (HU-639) in osteoblasts. *, ANOVA, p<0.05 vs. oleoyl-serine (HU-639)-free control (Cntl).
as §1

osteoclasts = test: Osteoclast survival in ex vivo culture of bone marrow-derived monocytes with M-CSF and RANKL; format: cell-based, mouse; settings: 4 days with M-CSF and RANKL
Source text: (§3) (A), number of intact osteoclasts with the use of oleoyl-serine (HU-639); (B), number of apoptotic osteoclasts; (C), representative photomicrograph of culture oleoyl-serine (HU-639)-free control culture; (D), representative photomicrograph of culture treated with 10^−10 M oleoyl-serine (HU-639); (E), immunoblot analysis of Erk1/2 phosphorylation in preosteoclast-like RAW 264.7 cells. (F), RT-PCR analysis of RANKL and OPG expression in bone marrow-derived primary stromal cells. Quantitative data are mean±SE obtained in 3 culture wells per condition. Arrows indicate, apoptotic osteoclasts; *, ANOVA, p<0.05 vs. oleoyl-serine (HU-639)-free control (Cntl).
(§4) This inhibition is likely to have a restraining effect on osteoclast survival [Kim et al, 2009].

Erk1/2 phosphorylation [4] = test: Immunoblot analysis of Erk1/2 phosphorylation in preosteoclast-like RAW 264.7 cells; format: cell-based
Source text: as §3, §4

RANKL expression = test: RT-PCR analysis of RANKL expression in bone marrow-derived primary stromal cells; format: cell-based
Source text: as §3, §4

[5] = system: ovariectomized (OVX) mice; test: Ovariectomy (OVX) mouse model of osteoporosis, microCT and histomorphometry of distal femoral metaphysis; format: in vivo
Protocol: FIG. 6 oleoyl-serine (HU-639) rescues ovariectomy (OVX)-induced trabecular bone loss in mouse distal femoral metaphysis. Mice were OVXed or sham-OVXed and left untreated for 6 weeks to allow for bone loss. Thereafter, OVXed mice were treated by i.p. administration of oleoyl-serine (HU-639), 5 mg/Kg/day for 6 weeks and subjected to qualitative and quantitative analysis by microcomputed tomography. BV/TV, trabecular bone volume density. VEH, ethanol/emulphor/saline solvent. Data are mean±SE obtained in 6-8 mice per condition.
VEH, ethanol/emulphore/saline solvent. Histomorphometric analysis based on vital labeling of newly formed bone by calcein. Data are mean±SE obtained in 6-8 mice per condition. *, ANOVA, p<0.05 vs. Sham-OVX.
VEH, ethanol/emulphore/saline solvent. Osteoclast counts were based on osteoclast specific staining with tartrate-resistant acid phosphatase. Data are mean±SE obtained in 6-8 mice per condition. *, ANOVA, p<0.05 vs. Sham-OVX and OVX/VEH.
Based on the in vitro screening, the in vivo skeletal activity of oleoyl-serine (HU-639) in an ovariectomy (removal of ovaries; OVX) mouse model, the most widely used animal model for osteoporosis, was analyzed. Using this experimental system for testing bone anabolic activity, OVXed mice are left untreated to allow for bone loss to occur, followed by a treatment period intended for reversal of the bone loss [Alexander et al, 2001]. […] To further elucidate the process leading to the oleoyl-serine (HU-639) rescue of OVX-induced bone loss, the same mice were subjected to an analysis of bone formation and resorption by computerized histomorphometry (HM).

osteoblasts = test: Blockade of oleoyl-serine (HU-639) mitogenic activity in osteoblasts; format: cell-based; settings: MEK inhibitor, inhibition of Erk1/2 phosphorylation
Source text: as §2, §1

Q: With CCCCCCCC/C=C\CCCCCCCC(=O)NC(C)(CO)C(=O)O (racemic) [HU-671, N-oleoly α-methyl-DL-serine] as the molecule, how does the “concentration of peak effect on cell number” value [1] read?
A: 10^−12 M

Q: What does the source list for CCCCCCCC/C=C\CCCCCCCC(=O)N[C@@H](CO)C(=O)O [HU-639, N-Oleoyl L-Serine]?
A: concentration of peak effect on cell number [1]: 10^−11 M; osteoblastic proliferation activity / potency [1]: highest potency; cell number ([1]; at 10^−11 M concentration): more than doubling cell number; osteoblastic proliferation activity / potency ([1]; listed as oleoyl serine): considerably more potent; shape of dose-response curves in culture (MC3T3 E1 cells; FIGS. 4A, 4B, peak stimulation of cell number followed by reversal to baseline): bell shaped; mitogenic effect by BrdU incorporation (MC3T3 E1 cells; MC3T3 E1 cells): confirmed; mitogenic effect by BrdU incorporation [2]: confirmed; Erk1/2 phosphorylation (Erk1/2 phosphorylation [3]): stimulates Erk1/2 phosphorylation; osteoclast apoptosis (osteoclasts): stimulating osteoclast apoptosis; osteoclast survival (number of intact osteoclasts) (osteoclasts): inhibition of osteoclast survival; also recorded: inhibits osteoclast survival; Erk phosphorylation (Erk1/2 phosphorylation [4]): reduced Erk phosphorylation, mainly p42; RANKL expression (RANKL expression): inhibits RANKL expression; reversal of bone loss compared with parathyroid hormone (1-34) ([5]; comparison with literature [Alexander et al, 2001]): greater than the reversal of bone volumetric density by parathyroid hormone (1-34); bone resorption, osteoclast counts (TRAP staining) ([5]; distal femoral metaphyseal trabecular bone): decreasing of osteoclast number; also recorded: markedly inhibited bone resorption; mineral appositional rate (MAR) ([5]; histomorphometry, calcein labeling): stimulated mineral appositional rate; overall trabecular bone formation ([5]; histomorphometry, compared to sham- and vehicle-treated OVXed controls): stimulation of trabecular bone formation; also recorded: stimulation of overall bone formation; difference in trabecular bone volume density (BV/TV) vs controls ([5]; vs vehicle treated OVXed controls (so in the source)): statistically insignificant

Q: With CCCCCCCC/C=C\CCCCCCC(C)C(=O)N[C@@H](CO)C(=O)O (stereo partly drawn) [HU-681, 2-Methyl Oleoyl-L-Serine] as the molecule, how does the “concentration of peak effect on cell number” value [1] read?
A: 10^−13 M

Q: How did the “blockade of oleoyl-serine (HU-639) mitogenic activity” value (osteoblasts) turn out when COc1cccc(-c2cc(=O)c3ccccc3o2)c1N [PD98059] was run?
A: blocks the oleoyl-serine (HU-639) mitogenic activity dose-dependently

Q: How did the “osteoblastic proliferation activity / potency” value [1] turn out when CCCCC/C=C\C/C=C\C/C=C\C/C=C\CCCC(=O)NCCO [anandamide, arachidonoyl ethanolamide, reference compound] was run?
A: some osteoblastic proliferation activity

Q: Which “osteoblastic proliferation activity / potency” value [1] does the source give for CCCCC/C=C\C/C=C\C/C=C\C/C=C\CCCC(=O)N[C@@H](CO)C(=O)O [arachidonoyl serine, N-arachidonoyl-serine, reference compound] here?
A: some osteoblastic proliferation activity

Q: How did the “osteoblastic proliferation activity / potency” value [1] turn out when CCCCCCCCCCCCCCCC(=O)NCCO [palmitoyl ethanolamide, reference compound] was run?
A: some osteoblastic proliferation activity
